Where a SMILES comes first, the peptide text is derived from it. [ ]: non-standard residue; d: D form. The star is where a group is joined. Nle = CCCC[C@H](N)C(=O)O; Bz = O=C(c1ccccc1)*
Columns and labels:
[1] = system: ACTH and β-endorphin-like (β-END-LI) secretion; assay: ACTH and β-END-LI secretion in vivo after intravenous administration; parameters: species or system rats; details: for stimulation of secretion of ACTH and β-END-LI: general procedure of Example III, in vitro or in vivo not stated
From the text: (§1) The synthetic and the natural rCRF were examined for their effects on the secretion of ACTH and β-endorphin in vitro and the synthetic rCRF was also examined in vivo.

[2] = lowering of blood pressure in rats; type: in vivo; details: for lowering of blood pressure: species not given, general procedure of Example III; for lowering of blood pressure compared with rCRF: relative to rCRF, species not stated
[3] = system: secretion of ACTH and β-endorphin; details: reported; cited from earlier work
[4] = mammals; reported; cited from earlier work
[5] = system: cultured rat pituitary cells; assay: secretion of ACTH and β-endorphin by cultured rat pituitary cells in vitro; type: cell-based; details: in vitro
From the text: as §1

Molecule | stimulation of secretion of ACTH and β-END-LI [1] | lowering of blood pressure [2] | further results
H-SEEPPISLDLTFHLLREVLEAARAEQLAQQAHSNRKLLEI[Nle]-NH2 [XI] | stimulates the secretion of ACTH and β-END-LI | very significant lowering of blood pressure | –
H-SQEPPISLDLTFHLLREVLEMAKAEQLAQQAHSNRKLLEII-NH2 [XIV] | stimulates the secretion of ACTH and β-END-LI | very significant lowering of blood pressure | –
H-Ser-Gln-Glu-Pro-Pro-Ile-Ser-Leu-Asp-Leu-Thr-Phe-His-Leu-Leu-Arg-Glu-Val-Leu-Glu-Met-Thr-Lys-Ala-Asp-Gln-Leu-Ala-Gln-Gln-Ala-His-Ser-Asn-Arg-Lys-Leu- Leu-Asp-Ile-Ala-NH2 (H-SQEPPISLDLTFHLLREVLEMTKADQLAQQAHSNRKLLDIA-NH2) [oCRF, ovine corticotropin releasing factor characterized in 1981] | – | – | biological activity in stimulating the secretion of ACTH and β-endorphin [3]: stimulating the secretion of ACTH and β-endorphin; biological activity in lowering blood pressure [4]: biological activity in lowering blood pressure in mammals
CCCC[C@H](NC(=O)[C@@H](NC(=O)[C@H](CC(C)C)NC(=O)[C@H](CC(=O)O)NC(=O)[C@H](CC(C)C)NC(=O)[C@H](CO)NC(=O)[C@@H](NC(=O)[C@@H]1CCCN1C(=O)[C@@H]1CCCN1C(=O)[C@H](CCC(=O)O)NC(=O)CNC(=O)c1ccccc1)[C@@H](C)CC)[C@@H](C)O)C(=O)N[C@@H](Cc1c[nH]cn1)C(=O)N[C@@H](CC(C)C)C(=O)N[C@@H](CC(C)C)C(=O)N[C@@H](CCCNC(=N)N)C(=O)N[C@@H](CCC(=O)O)C(=O)N[C@H](C(=O)N[C@@H](CC(C)C)C(=O)N[C@@H](CCC(=O)O)C(=O)N[C@@H](CCSC)C(=O)N[C@@H](C)C(=O)N[C@@H](CCCNC(=N)N)C(=O)N[C@@H](C)C(=O)N[C@@H](CCC(=O)O)C(=O)N[C@@H](CCC(N)=O)C(=O)N[C@@H](CC(C)C)C(=O)N[C@@H](C)C(=O)N[C@@H](CCC(N)=O)C(=O)N[C@@H](CCC(N)=O)C(=O)N[C@@H](C)C(=O)N[C@@H](Cc1c[nH]cn1)C(=O)N[C@@H](CO)C(=O)N[C@@H](CC(N)=O)C(=O)N[C@@H](CCCNC(=N)N)C(=O)N[C@@H](CCCCN)C(=O)N[C@@H](CC(C)C)C(=O)N[C@@H](CCSC)C(=O)N[C@@H](CCC(=O)O)C(=O)N[C@H](C(=O)N[C@H](C(N)=O)[C@@H](C)CC)[C@@H](C)CC)C(C)C [XII] (Bz-GEPPISLDLT[Nle]HLLREVLEMARAEQLAQQAHSNRKLMEII-NH2) | stimulates the secretion of ACTH and β-END-LI | very significant lowering of blood pressure | –
CC[C@H](C)[C@H](NC(=O)[C@@H](NC(=O)[C@H](CC(=O)O)NC(=O)[C@H](CCSC)NC(=O)[C@H](CC(C)C)NC(=O)[C@H](CC(C)C)NC(=O)[C@H](CCCNC(=N)N)NC(=O)[C@H](CC(N)=O)NC(=O)[C@H](CC(N)=O)NC(=O)[C@H](C)NC(=O)[C@H](C)NC(=O)[C@H](CCC(N)=O)NC(=O)[C@H](CCC(N)=O)NC(=O)[C@H](CCCCN)NC(=O)[C@H](CC(C)C)NC(=O)[C@H](CCCCN)NC(=O)[C@H](CCC(=O)O)NC(=O)[C@H](CCC(N)=O)NC(=O)[C@H](CCCCN)NC(=O)[C@H](CCC(=O)O)NC(=O)[C@@H](NC(=O)[C@H](CCC(=O)O)NC(=O)[C@@H](NC(=O)[C@H](CCSC)NC(=O)[C@H](CCCCN)NC(=O)[C@H](CCCNC(=N)N)NC(=O)[C@H](CC(C)C)NC(=O)[C@H](CC(C)C)NC(=O)[C@H](CCC(=O)O)NC(=O)[C@H](CC(C)C)NC(=O)[C@H](CO)NC(=O)[C@H](CC(C)C)NC(=O)[C@H](CC(=O)O)NC(=O)[C@@H](NC(=O)[C@H](CO)NC(=O)[C@@H](NC(=O)[C@@H]1CCCN1C(=O)[C@@H]1CCCN1C(=O)CNC(=O)[C@@H]1CCC(=O)N1)[C@@H](C)CC)[C@@H](C)CC)[C@@H](C)CC)[C@@H](C)CC)[C@@H](C)O)C(N)=O [XVIII] | stimulates the secretion of ACTH and β-END-LI | very significant lowering of blood pressure | –
H-PPISIDLSLELLRKMIEIAKQEKEKQQAANNRLLMDTI-NH2 [XVI] | stimulates the secretion of ACTH and β-END-LI | very significant lowering of blood pressure | –
CC[C@H](C)[C@H](NC(=O)[C@@H](NC(=O)[C@H](CC(=O)O)NC(=O)[C@H](CC(C)C)NC(=O)[C@H](CC(C)C)NC(=O)[C@H](CC(C)C)NC(=O)[C@H](CCCNC(=N)N)NC(=O)[C@H](CC(N)=O)NC(=O)[C@H](CC(N)=O)NC(=O)[C@H](C)NC(=O)[C@H](C)NC(=O)[C@H](CCC(N)=O)NC(=O)[C@H](CCC(N)=O)NC(=O)[C@H](CCCCN)NC(=O)[C@H](CCC(=O)O)NC(=O)[C@H](CCCCN)NC(=O)[C@H](CCC(=O)O)NC(=O)[C@H](CCC(N)=O)NC(=O)[C@H](CCCCN)NC(=O)[C@H](CCCNC(=N)N)NC(=O)[C@H](C)NC(=O)[C@H](CCC(=O)O)NC(=O)[C@@H](NC(=O)[C@H](CCSC)NC(=O)[C@H](CCCCN)NC(=O)[C@H](CCCNC(=N)N)NC(=O)[C@H](CC(C)C)NC(=O)[C@H](CC(C)C)NC(=O)[C@H](CCC(=O)O)NC(=O)[C@H](CC(C)C)NC(=O)[C@H](CO)NC(=O)[C@H](CC(C)C)NC(=O)[C@H](CC(=O)O)NC(=O)[C@@H](NC(=O)[C@H](CO)NC(=O)[C@@H](NC(=O)[C@@H]1CCCN1C(=O)[C@@H]1CCCN1C(=O)CNC(=O)[C@@H]1CCC(=O)N1)[C@@H](C)CC)[C@@H](C)CC)[C@@H](C)CC)[C@@H](C)CC)C(N)=O [XVII] | stimulates the secretion of ACTH and β-END-LI | very significant lowering of blood pressure | –
CC[C@H](C)[C@H](NC(=O)[C@@H](NC(=O)[C@H](CC(=O)O)NC(=O)[C@H](CC(C)C)NC(=O)[C@H](CC(C)C)NC(=O)[C@H](CC(C)C)NC(=O)[C@H](CCCNC(=N)N)NC(=O)[C@H](CC(N)=O)NC(=O)[C@H](CC(N)=O)NC(=O)[C@H](C)NC(=O)[C@H](C)NC(=O)[C@H](CCC(N)=O)NC(=O)[C@H](CCC(N)=O)NC(=O)[C@H](CCCCN)NC(=O)[C@H](CCC(=O)O)NC(=O)[C@H](CCCCN)NC(=O)[C@H](CCC(=O)O)NC(=O)[C@H](CCC(N)=O)NC(=O)[C@H](CCCCN)NC(=O)[C@H](CCC(=O)O)NC(=O)[C@@H](NC(=O)[C@H](CCC(=O)O)NC(=O)[C@@H](NC(=O)[C@H](CCSC)NC(=O)[C@H](CCCCN)NC(=O)[C@H](CCCNC(=N)N)NC(=O)[C@H](CC(C)C)NC(=O)[C@H](CC(C)C)NC(=O)[C@H](CCC(=O)O)NC(=O)[C@H](CC(C)C)NC(=O)[C@H](CO)NC(=O)[C@H](CC(C)C)NC(=O)[C@H](CC(=O)O)NC(=O)[C@@H](NC(=O)[C@H](CO)NC(=O)[C@@H](NC(=O)[C@@H]1CCCN1C(=O)[C@@H]1CCCN1C(=O)CNC(=O)[C@@H]1CCC(=O)N1)[C@@H](C)CC)[C@@H](C)CC)[C@@H](C)CC)[C@@H](C)CC)[C@@H](C)O)C(N)=O [Sauvagine] | – | – | biological activity in stimulating the secretion of ACTH and β-endorphin [3]: stimulating the secretion of ACTH and β-endorphin; biological activity in lowering blood pressure [4]: biological activity in lowering blood pressure in mammals
Ac-PPISLDLTFHLLREVLEMARAEQLAQQAHSNRKLMDII-NH2 [XIII] | stimulates the secretion of ACTH and β-END-LI | very significant lowering of blood pressure | lowering of blood pressure compared with rCRF [2]: to a greater extent than rCRF
H-SEEPPISLDLTFHLLREVAEMTRAEQLAQQAHSNRKLMEII-NH2 [VII] | stimulates the secretion of ACTH and β-END-LI | very significant lowering of blood pressure | –
H-SEEPPISLDLTFELLREVLEVARAEQLAQQAHSNRKLMEII-NH2 [IX] | stimulates the secretion of ACTH and β-END-LI | very significant lowering of blood pressure | lowering of blood pressure compared with rCRF [2]: to a great extent than rCRF
CC[C@H](C)[C@H](NC(=O)[C@@H](NC(=O)[C@H](CCC(=O)O)NC(=O)[C@H](CCSC)NC(=O)[C@H](CC(C)C)NC(=O)[C@H](CCCCN)NC(=O)[C@H](CCCNC(=N)N)NC(=O)[C@H](CC(N)=O)NC(=O)[C@H](CO)NC(=O)[C@H](Cc1c[nH]cn1)NC(=O)[C@H](C)NC(=O)[C@H](CCC(N)=O)NC(=O)[C@H](CCC(N)=O)NC(=O)[C@H](C)NC(=O)[C@H](CC(C)C)NC(=O)[C@H](CCC(N)=O)NC(=O)[C@H](CCC(=O)O)NC(=O)[C@H](C)NC(=O)[C@H](CCCNC(=N)N)NC(=O)[C@H](C)NC(=O)[C@H](CCSC)NC(=O)[C@H](CCC(=O)O)NC(=O)[C@H](CC(C)C)NC(=O)[C@@H](NC(=O)[C@H](CCC(=O)O)NC(=O)[C@H](CCCNC(=N)N)NC(=O)[C@H](CC(C)C)NC(=O)[C@H](CC(C)C)NC(=O)[C@H](Cc1c[nH]cn1)NC(=O)[C@H](Cc1ccccc1)NC(=O)[C@@H](NC(=O)[C@H](CC(C)C)NC(=O)[C@H](CC(=O)O)NC(=O)[C@H](CC(C)C)NC(=O)[C@H](CO)NC(=O)[C@@H](NC(=O)[C@@H]1CCCN1C(=O)[C@@H]1CCCN1C(=O)[C@H](CCC(=O)O)NC(=O)[C@H](CCC(=O)O)NC(=O)[C@@H](N)CO)[C@@H](C)CC)[C@@H](C)O)C(C)C)[C@@H](C)CC)C(N)=O [natural rCRF] | – | – | stimulation of ACTH and β-END-LI secretion in vivo (words) ([1]; in vivo, several rat preparations, listed as isolated rCRF): stimulate ACTH and β-endorphin activies; stimulation of secretion of ACTH and β-endorphin in vitro [5]: high potency; stimulation of secretion of ACTH and β-endorphin in vitro ([5]; listed as isolated rCRF): stimulate ACTH and β-endorphin activies
H-SEEPPISLDLTFHLLREVLE[Nle]ARAEQLAQQAYSNRKLMEII-NH2 [XV] | stimulates the secretion of ACTH and β-END-LI | very significant lowering of blood pressure | lowering of blood pressure compared with rCRF [2]: to a greater extent than rCRF
H-SEEPPIS[Nle]DLSFHLLREVLEMARAEQLAQQAHLNRKLMEII-NH2 [X] | stimulates the secretion of ACTH and β-END-LI | very significant lowering of blood pressure | –

From patent US4489163A, “rCRF and analogs” (The Salk Institute for Biological Studies, priority 1983, dated 1984)
